Measurements as given in ChEMBL document CHEMBL2331328, “Synthetic approaches to DNMT inhibitor SGI-1027 and effects on the U937 leukemia cell line” (Bioorg Med Chem Lett, 2013).
The source made the active and inactive calls. No cut-off for these calls is given here.

Experiments:
U-937 [1] = test: Cell cycle arrest in human U937 cells at 5 to 50 uM after 30 hrs by FACS analysis; type: functional, cell-based
[2] = target: DNA (cytosine-5)-methyltransferase 1 (Homo sapiens) (UniProt P26358); test: Inhibition of human DNMT1 using AdoMet and poly dI-dC at 50 uM after 2 hrs by radioactive assay
U-937 [3] = test: Induction of apoptosis in human U937 cells assessed as accumulation at pre-G1 phase after 30 hrs by FACS analysis; type: functional, cell-based

Sequence of DNA (cytosine-5)-methyltransferase 1 (Homo sapiens) (P26358 whole entry): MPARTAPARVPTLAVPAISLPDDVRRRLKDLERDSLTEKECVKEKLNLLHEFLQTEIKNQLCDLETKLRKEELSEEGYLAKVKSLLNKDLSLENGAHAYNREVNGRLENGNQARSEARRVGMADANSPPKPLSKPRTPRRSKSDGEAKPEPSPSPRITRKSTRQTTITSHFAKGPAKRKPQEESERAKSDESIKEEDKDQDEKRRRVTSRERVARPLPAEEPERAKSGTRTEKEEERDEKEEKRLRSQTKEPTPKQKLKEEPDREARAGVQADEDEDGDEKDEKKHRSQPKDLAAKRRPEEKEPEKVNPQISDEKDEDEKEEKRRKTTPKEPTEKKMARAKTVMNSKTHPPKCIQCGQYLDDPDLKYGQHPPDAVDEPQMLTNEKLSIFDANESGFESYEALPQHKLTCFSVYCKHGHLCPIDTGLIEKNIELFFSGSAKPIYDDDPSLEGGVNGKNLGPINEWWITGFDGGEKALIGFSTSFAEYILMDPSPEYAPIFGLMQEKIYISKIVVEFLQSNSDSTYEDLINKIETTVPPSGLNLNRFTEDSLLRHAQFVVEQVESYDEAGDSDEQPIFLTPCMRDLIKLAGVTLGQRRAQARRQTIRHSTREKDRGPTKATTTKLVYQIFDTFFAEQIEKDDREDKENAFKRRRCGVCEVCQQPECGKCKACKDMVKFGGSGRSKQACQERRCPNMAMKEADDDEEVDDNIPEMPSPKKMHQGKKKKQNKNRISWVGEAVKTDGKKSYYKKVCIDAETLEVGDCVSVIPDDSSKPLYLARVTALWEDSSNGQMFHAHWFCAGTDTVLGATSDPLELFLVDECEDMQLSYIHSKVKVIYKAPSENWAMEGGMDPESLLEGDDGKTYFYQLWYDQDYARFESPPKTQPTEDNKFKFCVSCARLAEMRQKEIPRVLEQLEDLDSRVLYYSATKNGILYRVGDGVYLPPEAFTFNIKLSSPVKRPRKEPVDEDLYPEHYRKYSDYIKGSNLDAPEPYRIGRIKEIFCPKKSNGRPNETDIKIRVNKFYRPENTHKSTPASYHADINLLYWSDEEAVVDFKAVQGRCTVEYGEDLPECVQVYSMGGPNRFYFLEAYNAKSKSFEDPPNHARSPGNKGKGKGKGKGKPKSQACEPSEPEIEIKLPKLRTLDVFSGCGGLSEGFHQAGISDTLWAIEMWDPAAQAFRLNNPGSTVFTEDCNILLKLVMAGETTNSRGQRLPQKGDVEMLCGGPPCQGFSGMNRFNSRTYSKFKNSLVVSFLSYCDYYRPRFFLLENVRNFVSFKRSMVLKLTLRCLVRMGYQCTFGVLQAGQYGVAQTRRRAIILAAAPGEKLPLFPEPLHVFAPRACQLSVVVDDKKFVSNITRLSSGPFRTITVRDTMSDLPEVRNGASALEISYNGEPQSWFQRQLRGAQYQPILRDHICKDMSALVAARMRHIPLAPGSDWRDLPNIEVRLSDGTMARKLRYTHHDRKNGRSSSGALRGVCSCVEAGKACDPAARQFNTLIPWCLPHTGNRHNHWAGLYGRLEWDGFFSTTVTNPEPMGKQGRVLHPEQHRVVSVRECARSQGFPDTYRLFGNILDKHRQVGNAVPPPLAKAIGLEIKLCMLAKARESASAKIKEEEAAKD

inhibition [2]	Compound	Activity (U-937 [1])	Activity (U-937 [3])
Active	Cc1cc(Nc2ccc(NC(=O)c3ccc(Nc4ccnc5ccccc45)cc3)cc2)nc(N)n1	inactive	Dose-dependent effect
Active	O=C(O)[C@H](Cc1c[nH]c2ccccc12)N1C(=O)c2ccccc2C1=O		
